Results published in paper PMC5047049, “Characterization of a functional C3A liver spheroid model” (Toxicology Research, 2016).
Entries after “also recorded” stand apart in the source; their conditions may differ. Where two headings read alike, the source gives them in different places.

What was measured:
[1] = system: MRP2 and Pgp transporters; experiment: Analysis of transporter function with CMFDA substrate in C3A spheroids; format: cell-based; conditions: 30 min
Procedure: (§1) Spheroids and monolayers were incubated with 5 μM 5-chloromethylfluorescein diacetate (CMFDA-Life Technologies) with or without 25 μM MK571 (MRP inhibitor) and 12.5 μM PSC833 (Pgp inhibitor) in EMEM for 30 min at 37 °C. CMFDA is membrane permeable until it enters cell and is converted to glutathione-methylfluorescein (GSMF), a cell impermeable substrate for MRP and Pgp.[40] Cells and spheroids were washed in PBS and prepared for immunofluorescence as described above.

[2] = system: MRP2 and Pgp transporters; experiment: Analysis of transporter function with CMFDA substrate in 2D monolayer C3A cells; format: cell-based; conditions: 5 μM CMFDA, 30 min
Procedure: as §1

[3] = system: C3A spheroids; experiment: Toxicological analysis: Cell Titer-Glo cell viability in C3A spheroids, 4 days with repeat dosing; format: cell-based
Procedure: Spheroids were created using the liquid overlay technique as previously described.[38] Briefly, 100 μl of sterile 1.5% Agarose (high gelling temperature-Sigma Aldrich) in EMEM was added per well to flat-bottomed 96-well cell culture plates to form a low-adherence surface. Additionally Ultra Low Adherence plates (ULA-Corning) were used as a comparison. C3A cells were seeded at 500, 750, 1000, 1500, 2000 or 2500 cells per well in 100 μl media and left for 72 hours to form spheroids. Media was renewed twice weekly and spheroids were cultured for up to 32 days. Images of spheroids in culture were taken by phase-contrast microscopy through 4× objective and maximum spheroid diameter measured. Spheroids were treated at day 3 of culture with hepatotoxic compounds acetaminophen, fialuridine, diclofenac and trovafloxacin diluted in 0.5% DMSO in EMEM for 4 days with repeat dosing on day 2. Monolayer C3A cells were treated with compounds for 24 hours. Cell viability was analysed using Cell Titer-Glo assay (Promega) according to the manufacturer's instructions and plotted as a percentage of untreated control.

[4] = system: C3A 2D monolayer; experiment: Toxicological analysis: Cell Titer-Glo cell viability in C3A 2D monolayer, 24 hours; format: cell-based
Procedure: C3A cells were maintained in EMEM (LGC Standards) supplemented with 10% FBS and 1% penicillin–streptomycin under standard cell culture conditions. For 2D monolayer experiments C3A cells were seeded and left to adhere for 24 hours and confirmed to be 100% confluent before analyses. Spheroids were treated at day 3 of culture with hepatotoxic compounds acetaminophen, fialuridine, diclofenac and trovafloxacin diluted in 0.5% DMSO in EMEM for 4 days with repeat dosing on day 2. Monolayer C3A cells were treated with compounds for 24 hours. Cell viability was analysed using Cell Titer-Glo assay (Promega) according to the manufacturer's instructions and plotted as a percentage of untreated control.

[5] = system: HepG2 monolayer cultures; design: method as in PMID 9862754; conditions: cited from earlier work
[6] = Homo sapiens, spheroids from 1000 C3A cells, treated at day 3 for 4 days with repeat dosing on day 2, read-out: IC50 value in C3A spheroids
[7] = Homo sapiens, monolayer C3A cells treated for 24 hours, read-out: IC50 value in C3A 2D monolayer (converted)

CC(=O)Oc1ccc2c(c1)Oc1cc(OC(C)=O)ccc1C21OC(=O)c2cc(CCl)ccc21 [CMFDA, 5-chloromethylfluorescein diacetate]
CMFDA localisation in spheroids ([1]; 5 μM CMFDA, C3A spheroids): accumulation and co-localisation of the compound within secondary canalicular-like structures; also recorded: accumulation of CMFDA in the bile canalicular structures | CMFDA localisation in spheroids with MRP and Pgp transporters blocked ([1]; with 25 μM MK571 (MRP inhibitor) and 12.5 μM PSC833 (Pgp inhibitor)): retained in the cell cytoplasm | CMFDA localisation in 2D monolayer [2]: retained CMFDA (green) within the cell cytoplasm

O=C(O)Cc1ccccc1Nc1c(Cl)cccc1Cl [Diclofenac]
IC50 [3, 6]: 295 µM | IC50 value in C3A 2D monolayer ([4]; monolayer C3A cells treated for 24 hours): Non toxic | IC50 value in C3A 2D monolayer ([4]; monolayer C3A cells treated for 24 hours, listed as diclofenac): did not have a toxic response at the concentrations used | IC50 [5]: ~763 µM

O=c1[nH]c(=O)n([C@@H]2O[C@H](CO)[C@@H](O)[C@@H]2F)cc1I [Fialuridine]
IC50 [3, 6]: 206 µM | IC50 [4, 7]: 380 µM

CC(=O)Nc1ccc(O)cc1 [Paracetamol]
IC50 ([3]; 96 h, C3A spheroids, 4 days repeat dosing, read-out: IC50 in spheroids): 7200 µM | IC50 [3, 6]: 7210 µM | IC50 ([4]; C3A monolayer, 24 hours, read-out: IC50 in monolayer culture): 33800 µM | IC50 [4, 7]: 33800 µM

N[C@@H]1[C@H]2CN(c3nc4c(cc3F)c(=O)c(C(=O)O)cn4-c3ccc(F)cc3F)C[C@@H]12 [Trovafloxacin]
IC50 [3, 6]: 65 µM | IC50 [4, 7]: 440 µM
